{
  "source": "patent US20150105252A1",
  "about": "“SUBSTITUTED PYRAZOLES AS HERBICIDES” (E I DU PONT DE NEMOURS AND COMPANY, priority 2013, published 2015)",
  "key": {"ducksalad": {"test_system": "ducksalad", "experiment": "Test C flooded paddy test", "format": "in vivo, Heteranthera limosa", "details": "Flood", "how_it_was_run": "(§1)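 Flooded 3 cm over soil; compound into paddy water; depth kept constant. Greenhouse 13–15 d.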"}, "radish, wild": {"test_system": "radish, wild", "experiment": "Test D preemergence", "format": "in vivo, Raphanus raphanistrum", "details": "for Plant response rating, Radish, Wild: Preemergence, scale 0 to 100", "how_it_was_run": "(§2)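 Formulation was a non-phytotoxic solvent mixture plus surfactant, applied either to soil at planting (silt loam, preemergence) or to foliage of 2–18 cm plants (postemergence). Visual evaluation versus controls followed at 14–21 days, scored 0–100.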"}, "pigweed [1]": {"test_system": "pigweed", "experiment": "Test D postemergence", "format": "in vivo, Amaranthus retroflexus", "details": "scale 0 to 100", "how_it_was_run": "as §2"}, "barley, winter": {"test_system": "barley, winter", "experiment": "Test D preemergence", "format": "in vivo, Hordeum vulgare", "details": "for Plant response rating, Barley, Winter: Preemergence, scale 0 to 100", "how_it_was_run": "as §2"}, "barley, spring": {"test_system": "barley, spring", "experiment": "Test D preemergence", "format": "in vivo, Hordeum vulgare", "details": "for Plant response rating, Barley, Spring: Preemergence, scale 0 to 100", "how_it_was_run": "as §2"}, "chamomile [2]": {"test_system": "chamomile", "experiment": "Test D postemergence", "format": "in vivo, Matricaria inodora", "details": "scale 0 to 100", "how_it_was_run": "as §2"}, "barnyardgrass": {"test_system": "barnyardgrass", "experiment": "Test C flooded paddy test", "format": "in vivo, Echinochloa crus-galli", "details": "Flood", "how_it_was_run": "as §1"}, "pigweed [3]": {"test_system": "pigweed", "experiment": "Test D preemergence", "format": "in vivo, Amaranthus retroflexus", "details": "for Plant response rating, Pigweed: Preemergence, scale 0 to 100", "how_it_was_run": "as §2"}, "chickweed": {"test_system": "chickweed", "experiment": "Test D preemergence", "format": "in vivo, Stellaria media", "details": "for Plant response rating, Chickweed: Preemergence, scale 0 to 100", "how_it_was_run": "as §2"}, "blackgrass": {"test_system": "blackgrass", "experiment": "Test D preemergence", "format": "in vivo, Alopecurus myosuroides", "details": "for Plant response rating, Blackgrass: Preemergence, scale 0 to 100", "how_it_was_run": "as §2"}, "windgrass": {"test_system": "windgrass", "experiment": "Test D postemergence", "format": "in vivo, Apera spica-venti", "details": "scale 0 to 100", "how_it_was_run": "as §2"}, "field violet": {"test_system": "field violet", "experiment": "Test D postemergence", "format": "in vivo, Viola arvensis", "details": "scale 0 to 100", "how_it_was_run": "as §2"}, "galium": {"test_system": "galium", "experiment": "Test D postemergence", "format": "in vivo, Galium aparine", "details": "scale 0 to 100", "how_it_was_run": "as §2"}, "chamomile [4]": {"test_system": "chamomile", "experiment": "Test D preemergence", "format": "in vivo, Matricaria inodora", "details": "for Plant response rating, Chamomile: Preemergence, scale 0 to 100", "how_it_was_run": "as §2"}, "rice": {"test_system": "rice", "experiment": "Test C flooded paddy test", "format": "in vivo, Oryza sativa", "details": "Flood", "how_it_was_run": "as §1"}, "sedge, umbrella": {"test_system": "sedge, umbrella", "experiment": "Test C flooded paddy test", "format": "in vivo, Cyperus difformis", "details": "Flood", "how_it_was_run": "as §1"}, "speedwell": {"test_system": "speedwell", "experiment": "Test D preemergence", "format": "in vivo, Veronica persica", "details": "for Plant response rating, Speedwell: Preemergence, scale 0 to 100", "how_it_was_run": "as §2"}, "oat, wild": {"test_system": "oat, wild", "experiment": "Test D preemergence", "format": "in vivo, Avena fatua", "details": "for Plant response rating, Oat, Wild: Preemergence, scale 0 to 100", "how_it_was_run": "as §2"}, "[5]": {"details": "31 g ai/ha, scale 0 to 100 (0 no effect, 100 complete control)"}, "[6]": {"details": "62 g ai/ha, scale 0 to 100 (0 no effect, 100 complete control)"}, "[7]": {"details": "16 g ai/ha, taken as preemergence"}},
  "data": [
    {"smiles": "Cc1cc(C(=O)NCC(F)(F)F)nn1Cc1ccnc(C(F)(F)F)c1", "note": "[Compound 74]", "values": [
      {"measurement": "Plant response rating, Ducksalad", "setting": "ducksalad; [5]", "result": 0},
      {"measurement": "Plant response rating, Ducksalad", "setting": "ducksalad; [6]", "result": 0},
      {"measurement": "Plant response rating, Ducksalad", "setting": "ducksalad; 125 g ai/ha, scale 0 to 100", "result": 0},
      {"measurement": "Plant response rating, Ducksalad", "setting": "ducksalad; 250 g ai/ha, scale 0 to 100", "result": 90},
      {"measurement": "Plant response rating (scale 0 to 100), Radish, Wild", "setting": "radish, wild; [7]", "result": 0},
      {"measurement": "Plant response rating, Radish, Wild", "setting": "radish, wild; 31 g ai/ha", "result": 15},
      {"measurement": "Plant response rating, Radish, Wild", "setting": "radish, wild; 62 g ai/ha", "result": 75},
      {"measurement": "Plant response rating, Radish, Wild", "setting": "radish, wild; 125 g ai/ha", "result": 100},
      {"measurement": "Plant response rating, Pigweed", "setting": "pigweed [1]; Postemergence, 16 g ai/ha", "result": 65},
      {"measurement": "Pigweed plant response rating", "setting": "pigweed [1]; Postemergence, 31 g ai/ha", "result": 50},
      {"measurement": "Pigweed plant response rating", "setting": "pigweed [1]; Postemergence, 125 g ai/ha", "result": 65},
      {"measurement": "Pigweed plant response rating", "setting": "pigweed [1]; postemergence, 62 g ai/ha", "result": 65},
      {"measurement": "Plant response rating (scale 0 to 100), Barley, Winter", "setting": "barley, winter; [7]", "result": 0},
      {"measurement": "Plant response rating, Barley, Winter", "setting": "barley, winter; 31 g ai/ha", "result": 0},
      {"measurement": "Plant response rating, Barley, Winter", "setting": "barley, winter; 62 g ai/ha", "result": 0},
      {"measurement": "Plant response rating, Barley, Winter", "setting": "barley, winter; 125 g ai/ha", "result": 0},
      {"measurement": "Plant response rating (scale 0 to 100), Barley, Spring", "setting": "barley, spring; 16 g ai/ha, taken as preemergence, 0 = no effect, 100 = complete control", "result": 0},
      {"measurement": "Plant response rating, Barley, Spring", "setting": "barley, spring; 31 g ai/ha", "result": 0},
      {"measurement": "Plant response rating, Barley, Spring", "setting": "barley, spring; 62 g ai/ha", "result": 0},
      {"measurement": "Plant response rating, Barley, Spring", "setting": "barley, spring; 125 g ai/ha", "result": 5},
      {"measurement": "Plant response rating, Chamomile", "setting": "chamomile [2]; Postemergence, 16 g ai/ha", "result": 15},
      {"measurement": "Chamomile plant response rating", "setting": "chamomile [2]; Postemergence, 31 g ai/ha", "result": 15},
      {"measurement": "Chamomile plant response rating", "setting": "chamomile [2]; Postemergence, 125 g ai/ha", "result": 50},
      {"measurement": "Chamomile plant response rating", "setting": "chamomile [2]; postemergence, 62 g ai/ha", "result": 20},
      {"measurement": "Plant response rating, Barnyardgrass", "setting": "barnyardgrass; [5]", "result": 0},
      {"measurement": "Plant response rating, Barnyardgrass", "setting": "barnyardgrass; [6]", "result": 15},
      {"measurement": "Plant response rating, Barnyardgrass", "setting": "barnyardgrass; 125 g ai/ha, scale 0 to 100", "result": 15},
      {"measurement": "Plant response rating, Barnyardgrass", "setting": "barnyardgrass; 250 g ai/ha, scale 0 to 100", "result": 15},
      {"measurement": "Plant response rating (scale 0 to 100), Pigweed", "setting": "pigweed [3]; [7]", "result": 15},
      {"measurement": "Plant response rating, Pigweed", "setting": "pigweed [3]; 31 g ai/ha", "result": 30},
      {"measurement": "Plant response rating, Pigweed", "setting": "pigweed [3]; 62 g ai/ha", "result": 70},
      {"measurement": "Plant response rating, Pigweed", "setting": "pigweed [3]; 125 g ai/ha", "result": 100},
      {"measurement": "Plant response rating (scale 0 to 100), Chickweed", "setting": "chickweed; [7]", "result": 20},
      {"measurement": "Plant response rating, Chickweed", "setting": "chickweed; 31 g ai/ha", "result": 70},
      {"measurement": "Plant response rating, Chickweed", "setting": "chickweed; 62 g ai/ha", "result": 100},
      {"measurement": "Plant response rating, Chickweed", "setting": "chickweed; 125 g ai/ha", "result": 100},
      {"measurement": "Plant response rating (scale 0 to 100), Blackgrass", "setting": "blackgrass; [7]", "result": 0},
      {"measurement": "Plant response rating, Blackgrass", "setting": "blackgrass; 31 g ai/ha", "result": 0},
      {"measurement": "Plant response rating, Blackgrass", "setting": "blackgrass; 62 g ai/ha", "result": 10},
      {"measurement": "Plant response rating, Blackgrass", "setting": "blackgrass; 125 g ai/ha", "result": 15},
      {"measurement": "Plant response rating, Windgrass", "setting": "windgrass; Postemergence, 16 g ai/ha", "result": 0},
      {"measurement": "Windgrass plant response rating", "setting": "windgrass; Postemergence, 31 g ai/ha", "result": 0},
      {"measurement": "Windgrass plant response rating", "setting": "windgrass; Postemergence, 125 g ai/ha", "result": 5},
      {"measurement": "Windgrass plant response rating", "setting": "windgrass; postemergence, 62 g ai/ha", "result": 0},
      {"measurement": "Plant response rating, Field Violet", "setting": "field violet; Postemergence, 16 g ai/ha", "result": 25},
      {"measurement": "Field Violet plant response rating", "setting": "field violet; Postemergence, 31 g ai/ha", "result": 30},
      {"measurement": "Field Violet plant response rating", "setting": "field violet; Postemergence, 125 g ai/ha", "result": 50},
      {"measurement": "Field Violet plant response rating", "setting": "field violet; postemergence, 62 g ai/ha", "result": 60},
      {"measurement": "Plant response rating, Galium", "setting": "galium; Postemergence, 16 g ai/ha", "result": 10},
      {"measurement": "Galium plant response rating", "setting": "galium; Postemergence, 31 g ai/ha", "result": 20},
      {"measurement": "Galium plant response rating", "setting": "galium; Postemergence, 125 g ai/ha", "result": 70},
      {"measurement": "Galium plant response rating", "setting": "galium; postemergence, 62 g ai/ha", "result": 40},
      {"measurement": "Plant response rating (scale 0 to 100), Chamomile", "setting": "chamomile [4]; [7]", "result": 20},
      {"measurement": "Plant response rating, Chamomile", "setting": "chamomile [4]; 31 g ai/ha", "result": 60},
      {"measurement": "Plant response rating, Chamomile", "setting": "chamomile [4]; 62 g ai/ha", "result": 80},
      {"measurement": "Plant response rating, Chamomile", "setting": "chamomile [4]; 125 g ai/ha", "result": 90},
      {"measurement": "Plant response rating, Rice", "setting": "rice; [5]", "result": 0},
      {"measurement": "Plant response rating, Rice", "setting": "rice; [6]", "result": 15},
      {"measurement": "Plant response rating, Rice", "setting": "rice; 125 g ai/ha, scale 0 to 100", "result": 15},
      {"measurement": "Plant response rating, Rice", "setting": "rice; 250 g ai/ha, scale 0 to 100", "result": 15},
      {"measurement": "Plant response rating, Sedge, Umbrella", "setting": "sedge, umbrella; [5]", "result": 0},
      {"measurement": "Plant response rating, Sedge, Umbrella", "setting": "sedge, umbrella; [6]", "result": 0},
      {"measurement": "Plant response rating, Sedge, Umbrella", "setting": "sedge, umbrella; 125 g ai/ha, scale 0 to 100", "result": 0},
      {"measurement": "Plant response rating, Sedge, Umbrella", "setting": "sedge, umbrella; 250 g ai/ha, scale 0 to 100", "result": 90},
      {"measurement": "Plant response rating (scale 0 to 100), Speedwell", "setting": "speedwell; [7]", "result": 100},
      {"measurement": "Plant response rating, Speedwell", "setting": "speedwell; 31 g ai/ha", "result": 100},
      {"measurement": "Plant response rating, Speedwell", "setting": "speedwell; 62 g ai/ha", "result": 100},
      {"measurement": "Plant response rating, Speedwell", "setting": "speedwell; 125 g ai/ha", "result": 100},
      {"measurement": "Plant response rating (scale 0 to 100), Oat, Wild", "setting": "oat, wild; [7]", "result": 20},
      {"measurement": "Plant response rating, Oat, Wild", "setting": "oat, wild; 31 g ai/ha", "result": 10},
      {"measurement": "Plant response rating, Oat, Wild", "setting": "oat, wild; 62 g ai/ha", "result": 10},
      {"measurement": "Plant response rating, Oat, Wild", "setting": "oat, wild; 125 g ai/ha", "result": 30}
    ]}
  ]
}
